We go through one molecule from US20260306460A1, “COMPOSITION FOR REMOVING AND INHIBITING SENESCENT CELLS, AND USES THEREOF” (LIFECEUTIX CO., LTD., priority 2023, published 2026).

Molecules are shown by their SMILES.

Common to all, as to type: in vivo, mouse
In assay [1] the test system is naturally aged C57BL6J mice. In words: Geriatric depression and anxiety in aged mice, Example 21-8. To be noted: aged mice. An excerpt: The amount of senescent-associated secretory factor (SASP) in serum and tissues collected from mice of Examples 21-5 and 21-6 was reduced by treatment with LX-5701, LX-2101, or LX-2102. It was confirmed that removing senescent cells, which increase with aging in mice, and effectively reducing the amount of senescent-associated secretory factor (SASP) can improve symptoms of geriatric depression and anxiety.

The subject of assay [2] is naturally aged C57BL6J mice. In words: Hot plate joint pain test in naturally aged mice, Example 21-12, Table 27. To be noted: hot plate 55° C., untreated aged 6.9 (±1.8). The procedure:
(§1) 22-month-old female C57BL6J mice (KRIBB Laboratory Animal Resource Center) were acclimated to the experimental environment for one week, after which the aged mice were randomly assigned to experimental and control groups. Eight-week-old, non-aged mice served as controls. LX-403 was mixed in a 10% ethanol solution of PEG400 and administered orally at a concentration of 25 mg/kg daily for 21 days, or administered to the skin, joints, or eyes at a concentration of 1 μM. LX-1801 was mixed in distilled water with 4% DMSO, 30% PEG300, and 5% Tween80 and administered to the skin, joints, or eyes at a concentration of 0.4 μM daily for 21 days. LX-2001 was mixed in PBS and administered to the skin, joints, or eyes at a concentration of […] daily for 21 days. LX-2002 was mixed in distilled water with 4% DMSO, 30% PEG300, and 5% Tween80 and administered to the skin, joints, or eyes at a concentration of 2 μM daily for 21 days. […] LX-2005 was mixed in distilled water with 4% DMSO, 30% PEG300, and 5% Tween80 and administered to the skin, joints, or eyes at a concentration of 90 μM daily for 21 days. LX-2007 was mixed in distilled water with 4% DMSO, 30% PEG300, and 5% Tween80 and administered to the skin, joints, or eyes at a concentration of 90 μM daily for 21 days. […] LX-3002 was mixed in distilled water with 4% DMSO, 30% PEG300, and 5% Tween80 and administered orally at a concentration of 10 mg/kg daily for 21 days. […] LX-5411 was mixed in 5% PBS and administered orally at a concentration of 10 mg/kg daily for 21 days or administered to the skin, joints, or eyes at a concentration of 3 μM. LX-5701 was mixed in PBS and administered orally at a concentration of 360 mg/kg daily for 21 days. LX-6807 was mixed in saline and administered intraperitoneally at a concentration of 1 mg/kg daily for 21 days. LX-2101 or LX-2102 was mixed in PBS solution with 5% DMSO and administered intraperitoneally at a concentration of 20 mg/kg or 10 mg/kg, respectively, daily for 21 days. The control group received only the solution in the same volume. After the end of drug administration, the methods described in each example below were performed.
(§2) RNA was extracted from joint tissue as described in Example 7-2 of WO2023-085787 A1, and qRT-PCR was performed using the synthesized cDNA. […] To analyze joint pain due to joint aging, hotplate analysis was performed. Specifically, thermal pain thresholds were measured using a hot plate. After acclimating mice to a temperature of 30° C. for 10 minutes, the time required for hind paw licking or jumping responses to occur at 55° C. was measured. To prevent tissue damage, the response was measured for less than 30 seconds, and the average value was used from five measurements.

Assay [3] has as its system naturally aged C57BL6J mice. Put plainly: Frailty (open field, wire hanging, grip strength, muscle and fat tissue) in naturally aged mice, Example 21-7, Table 23. The protocol: as §1
To analyze frailty due to aging in mice, an activity test (open field test), an endurance test (wire hanging test), and a muscle strength and grip strength test (grip strength test) were performed using the same method as in Example 7-7 of WO2023-085787 A1. The table below quantitatively represents the results of activity, endurance, muscle strength, and grip strength, which are criteria for assessing frailty, under conditions in which aging was induced and the test compound was not administered or administered. The amount of each evaluation after aging was calculated as 100% and compared with the amount of each evaluation after treatment with the drug of the present invention.

In assay [4] the test system is obesity-induced aged C57BL6J mice. In words: Anxiety, depression, lethargy (open field test) in obesity-aged mice, Example 23-4, Table 44. The gist of the method:
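Male C57BL6J mice were made obese on a high-fat diet from 15 weeks of age. Compounds were given daily for 21 days: LX-3002 10 mg/kg orally, LX-5701 360 mg/kg orally, LX-6807 1 mg/kg intraperitoneally, with vehicle-treated controls. Open-field activity was then expressed relative to obese untreated mice set at 100%.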

Assay [5] has as its system naturally aged C57BL6J mice. Put plainly: Joint aging (arthritis marker mRNA) in naturally aged mice, Example 21-12, Table 27. The protocol:
as §1, §2

Consider `Cc1cccc([C@H](C)c2cnc[nH]2)c1C` [LX-6807, Dexmedetomidine], for which, in assay [1], the “amount of SASP, p16, SA-β-gal, lipofuscin” value was “reduced”; the “symptoms of geriatric depression and anxiety” value is “improved”. Moreover, in assay [2], the “Response time (s)” value was 4.8 (±0.4) s. Moreover, the “Fat Mass (g)” value in assay [3] (inguinal and epididymal fat, untreated aged 0.82 (±0.19)) is 1.08 (±0.15) g. For the same molecule, the “Muscle Mass (g)” value in assay [3] (quadriceps and gastrocnemius, untreated aged 0.64 (±0.06)) is 0.74 (±0.04) g. Further, in assay [3] (untreated aged = 100%), the “Grip Sterenght Test Strength (%)” value is 128 (±6.2) %, the “Open Field Test Time in Center (%)” value was 269 (±13.3) % and the “Wire Hanging Test Time (%)” value was 156 (±16.4) %. The geriatric depression entry in assay [4] (obesity-aged mice) is reported as “similarly improving geriatric depression”. Moreover, in assay [4] (obesity-induced aged mice, daily for 21 days, activity after obesity-induced aging calculated as 100%), the “Open Field Test Time in Center” value is recorded as 202 (±18.2) %. The “Col2a1 mRNA (fold)” value in assay [5] was 3.5 (±0.2) fold.
